# Article PMC3335078, “Length and Amino Acid Sequence of Peptides Substituted for the 5-HT3A Receptor M3M4 Loop May Affect Channel Expression and Desensitization” (PLoS ONE, 2012)
# Assays:
# 5-HT3A-A7 = molecular target: T1, 5-HT3A-A7 (Mus musculus, UniProt P23979); experiment: Radioactive 5-HT binding to oocytes expressing 5-HT3A-A7; details: 150 nM [3H]5-HT + 10 µM 5-HT, 5 min, 45 s cold wash
# T1 construct: expressed in transfected cells; host or cells: Xenopus laevis oocytes injected with mRNA
# T1 sequence (P23979 with tags, fused parts or gaps isoform P23979-2 limits assumed): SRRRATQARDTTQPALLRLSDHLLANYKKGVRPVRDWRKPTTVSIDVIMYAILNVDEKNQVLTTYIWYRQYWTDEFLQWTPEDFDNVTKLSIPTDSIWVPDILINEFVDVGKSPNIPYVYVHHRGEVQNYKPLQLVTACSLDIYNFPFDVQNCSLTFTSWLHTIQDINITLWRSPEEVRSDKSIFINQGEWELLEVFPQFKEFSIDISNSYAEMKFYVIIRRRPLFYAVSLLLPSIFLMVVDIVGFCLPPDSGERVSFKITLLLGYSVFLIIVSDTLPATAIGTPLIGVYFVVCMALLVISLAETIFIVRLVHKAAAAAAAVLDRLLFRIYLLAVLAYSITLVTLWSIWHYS
# Protocol: (§1) Assays were terminated by five washes with ice cold CFFR buffer, followed by solubilization of the oocytes individually with 200 µl 5% SDS. Total wash time was 45 s. […] All data points represent the average of at least fifteen individual oocytes derived from three separate oocyte isolations.
# (§2) To determine the extent of non-specific binding, all binding experiments were performed in parallel with diethylpyrocarbonate-(DEPC)-treated-water injected oocytes or uninjected oocytes.
# [1] = molecular target: T2, 5-HT3A-A4 (M3M4 loop replaced by four alanines) (Mus musculus, UniProt P23979); experiment: Two-electrode voltage clamp, oocytes expressing 5-HT3A-A4; type: cell-based
# T2 construct: expressed in transfected cells; host or cells: Xenopus laevis oocytes injected with mRNA
# T2 sequence (P23979 with tags, fused parts or gaps isoform P23979-2 limits assumed): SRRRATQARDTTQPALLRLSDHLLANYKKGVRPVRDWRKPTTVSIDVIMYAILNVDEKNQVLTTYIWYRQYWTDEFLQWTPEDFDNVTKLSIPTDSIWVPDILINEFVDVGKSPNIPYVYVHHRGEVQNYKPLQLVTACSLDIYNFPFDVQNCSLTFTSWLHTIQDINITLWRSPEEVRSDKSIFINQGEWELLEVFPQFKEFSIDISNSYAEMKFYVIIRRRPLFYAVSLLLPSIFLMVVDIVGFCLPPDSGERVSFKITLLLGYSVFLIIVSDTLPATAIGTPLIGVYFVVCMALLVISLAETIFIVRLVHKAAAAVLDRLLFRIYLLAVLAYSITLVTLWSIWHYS
# Text: (§3) The mouse 5-HT3A cDNA with an N-terminal V5 epitope tag was cloned into the pXOON vector as previously described, and is referred to in this paper as “wild-type” (WT). The starting construct for all of the M3M4 loop replacement constructs used in this work was the 5-HT3A-ΔM3M4 construct formed by splicing the cytoplasmic end of M3 (M3-LVHK/QDLQRP…) to the cytoplasmic end of M4 (…WLRVGY/VLDRLL-M4). The splice was made at the site of the “/” to yield the sequence M3-LVHK/VLDRLL-M4 [34]. This removed 115 residues predicted to form the M3M4 loop.
# (§4) The construction of the 5-HT3A-glvM3M4 chimera with the 5-HT3A M3M4 loop replaced by the GLIC heptapeptide M3M4 loop (SQPARAA) was described previously. Point mutations, alanine and Gly-Ser-Ala insertions into the 5-HT3A-ΔM3M4 construct were generated with the Quikchange site directed mutagenesis procedure (Stratagene, La Jolla, CA). The entire coding region of all mutant constructs was verified by DNA sequencing (Albert Einstein College of Medicine DNA Sequencing Facility). The pXOON plasmid was linearized using NheI and capped mRNA prepared with T7 RNA polymerase (mMessage mMachine, Ambion, Austin, TX).
# Use of Xenopus laevis in this study was carried out in strict accordance with the recommendations in the Guide for the Care and Use of Laboratory Animals of the National Institutes of Health. The protocol was approved by the Albert Einstein College of Medicine Animal Care and Use Committee (Protocol Number: 20081201). All surgery was performed under tricaine anesthesia, and all efforts were made to minimize suffering. Oocyctes were harvested from Xenopus (Nasco Science, Fort Atkinson, WI) anesthetized with 0.15% tricaine. […]
# (§5) Currents were recorded under two-electrode voltage clamp from oocytes 2–5 d post-injection as described previously. […]
# (§6) Desensitization rates were determined by fitting a single exponential decay function to the current data with Prism 4 software (GraphPad Software). Significant differences compared with wild-type were determined by a one-way ANOVA (p<0.05) using Dunnett's multiple comparison post-hoc test (p<0.05). […]
# [2] = molecular target: T3, 5-HT3A M3M4 loop SQPAEAA construct (Mus musculus, UniProt P23979); experiment: Two-electrode voltage clamp, oocytes expressing SQPAEAA loop construct; type: cell-based; details: 10 µM 5-HT, Xenopus oocytes
# T3 construct: expressed in transfected cells; host or cells: Xenopus laevis oocytes injected with mRNA
# T3 sequence (P23979 with tags, fused parts or gaps): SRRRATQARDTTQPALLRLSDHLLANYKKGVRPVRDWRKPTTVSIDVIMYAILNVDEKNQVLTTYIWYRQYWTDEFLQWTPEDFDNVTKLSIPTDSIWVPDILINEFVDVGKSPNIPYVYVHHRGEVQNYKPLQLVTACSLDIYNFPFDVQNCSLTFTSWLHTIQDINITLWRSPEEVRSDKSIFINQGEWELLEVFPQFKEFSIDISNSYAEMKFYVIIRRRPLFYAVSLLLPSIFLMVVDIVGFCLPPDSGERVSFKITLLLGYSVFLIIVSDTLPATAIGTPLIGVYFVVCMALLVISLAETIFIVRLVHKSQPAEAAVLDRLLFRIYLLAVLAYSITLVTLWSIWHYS
# Text: as §3
# (§7) The construction of the 5-HT3A-glvM3M4 chimera with the 5-HT3A M3M4 loop replaced by the GLIC heptapeptide M3M4 loop (SQPARAA) was described previously. Point mutations, alanine and Gly-Ser-Ala insertions into the 5-HT3A-ΔM3M4 construct were generated with the Quikchange site directed mutagenesis procedure (Stratagene, La Jolla, CA). […]
# as §5, §6
# [3] = molecular target: T4, 5-HT3A M3M4 loop SQPAAAA construct (Mus musculus, UniProt P23979); experiment: Two-electrode voltage clamp, oocytes expressing SQPAAAA loop construct; type: cell-based; details: 10 µM 5-HT, Xenopus oocytes
# T4 construct: expressed in transfected cells; host or cells: Xenopus laevis oocytes injected with mRNA
# T4 sequence (P23979 with tags, fused parts or gaps): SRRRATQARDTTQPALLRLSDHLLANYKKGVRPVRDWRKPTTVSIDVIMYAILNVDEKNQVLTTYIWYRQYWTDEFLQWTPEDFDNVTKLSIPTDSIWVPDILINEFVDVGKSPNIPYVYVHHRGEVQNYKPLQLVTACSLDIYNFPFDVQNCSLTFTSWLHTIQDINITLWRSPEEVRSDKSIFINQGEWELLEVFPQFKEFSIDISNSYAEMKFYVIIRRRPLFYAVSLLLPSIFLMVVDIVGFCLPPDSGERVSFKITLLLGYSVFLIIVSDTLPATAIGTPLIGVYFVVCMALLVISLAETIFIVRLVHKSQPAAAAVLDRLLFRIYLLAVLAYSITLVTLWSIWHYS
# Text: as §3, §7, §5, §6
# 5-HT3A-A1 = molecular target: T5, 5-HT3A-A1 (Mus musculus, UniProt P23979, DELINS338-452A); experiment: Radioactive 5-HT binding to oocytes expressing 5-HT3A-A1; details: 150 nM [3H]5-HT + 10 µM 5-HT, 5 min, 45 s cold wash
# T5 construct: expressed in transfected cells; host or cells: Xenopus laevis oocytes injected with mRNA
# Protocol: as §1, §2
# 5-HT3A-A2 = molecular target: T6, 5-HT3A-A2 (Mus musculus, UniProt P23979, DELINS338-452AA); experiment: Radioactive 5-HT binding to oocytes expressing 5-HT3A-A2; details: 150 nM [3H]5-HT + 10 µM 5-HT, 5 min, 45 s cold wash
# T6 construct: expressed in transfected cells; host or cells: Xenopus laevis oocytes injected with mRNA
# T6 sequence (P23979 with tags, fused parts or gaps isoform P23979-2 DELINS338-452AA limits assumed): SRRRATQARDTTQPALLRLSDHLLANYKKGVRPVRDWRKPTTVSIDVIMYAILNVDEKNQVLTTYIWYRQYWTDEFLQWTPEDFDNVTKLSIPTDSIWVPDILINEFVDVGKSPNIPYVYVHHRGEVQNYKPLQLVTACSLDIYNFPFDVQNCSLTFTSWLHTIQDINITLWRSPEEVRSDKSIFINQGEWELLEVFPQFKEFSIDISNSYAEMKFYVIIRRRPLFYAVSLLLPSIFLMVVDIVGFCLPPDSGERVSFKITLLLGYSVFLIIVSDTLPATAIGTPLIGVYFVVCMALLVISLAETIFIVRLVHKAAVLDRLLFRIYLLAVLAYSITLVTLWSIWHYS
# Protocol: as §1, §2
# [4] = molecular target: T7, 5-HT3A-A1 (M3M4 loop replaced by one alanine) (Mus musculus, UniProt P23979, DELINS338-452A); experiment: Two-electrode voltage clamp, oocytes expressing 5-HT3A-A1; type: cell-based
# T7 construct: expressed in transfected cells; host or cells: Xenopus laevis oocytes injected with mRNA
# T7 sequence (P23979 with tags, fused parts or gaps isoform P23979-2 DELINS338-452A limits assumed): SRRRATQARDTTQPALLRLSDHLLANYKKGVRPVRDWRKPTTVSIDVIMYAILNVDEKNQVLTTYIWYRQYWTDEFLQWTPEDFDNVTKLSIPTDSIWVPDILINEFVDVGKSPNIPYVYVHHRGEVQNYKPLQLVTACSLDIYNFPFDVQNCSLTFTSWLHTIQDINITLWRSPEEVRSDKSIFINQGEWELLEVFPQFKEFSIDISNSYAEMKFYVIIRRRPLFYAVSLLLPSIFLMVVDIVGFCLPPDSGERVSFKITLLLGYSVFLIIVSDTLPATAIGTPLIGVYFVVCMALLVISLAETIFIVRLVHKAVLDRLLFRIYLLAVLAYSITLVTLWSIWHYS
# Text: as §3, §4
# Use of Xenopus laevis in this study was carried out in strict accordance with the recommendations in the Guide for the Care and Use of Laboratory Animals of the National Institutes of Health. The protocol was approved by the Albert Einstein College of Medicine Animal Care and Use Committee (Protocol Number: 20081201). All surgery was performed under tricaine anesthesia, and all efforts were made to minimize suffering. Oocyctes were harvested from Xenopus (Nasco Science, Fort Atkinson, WI) anesthetized with 0.15% tricaine. Oocyctes were defolliculated by incubation in 2 mg ml^−1 Type 1A collagenase (Sigma-Aldrich, St. Louis, MO) in OR2 (85 mM NaCl, 2 mM KCl, 1 mM MgCl2, and 5 mM HEPES; pH adjusted to 7.5 with NaOH) for a 60 or 75 min. Oocytes were washed in OR2 and stored at 16°C in SOS medium: 100 mM NaCl, 2 mM KCl, 1 mM MgCl2, 1.8 mM CaCl2 5 mM HEPES, pH 7.5 with 100 IU ml^−1 penicillin, 100 µg ml^−1 streptomycin, and 250 ng ml^−1 amphotericin B (Invitrogen, Carlsbad, CA) and 5% horse serum (Sigma-Aldrich). 24 hrs following isolation, oocyctes were injected with 23 nl (2.3 ng) of mRNA and were kept in SOS media for 2–5 d at 16°C.
# Currents were recorded under two-electrode voltage clamp from oocytes 2–5 d post-injection as described previously. […] The perfusion chamber volume was 200 µl. […]
# as §6
# [5] = molecular target: T8, 5-HT3A M3M4 loop SQAPARA construct (Mus musculus, UniProt P23979); experiment: Two-electrode voltage clamp, oocytes expressing SQAPARA loop construct; type: cell-based; details: 10 µM 5-HT, Xenopus oocytes
# T8 construct: expressed in transfected cells; host or cells: Xenopus laevis oocytes injected with mRNA
# T8 sequence (P23979 with tags, fused parts or gaps): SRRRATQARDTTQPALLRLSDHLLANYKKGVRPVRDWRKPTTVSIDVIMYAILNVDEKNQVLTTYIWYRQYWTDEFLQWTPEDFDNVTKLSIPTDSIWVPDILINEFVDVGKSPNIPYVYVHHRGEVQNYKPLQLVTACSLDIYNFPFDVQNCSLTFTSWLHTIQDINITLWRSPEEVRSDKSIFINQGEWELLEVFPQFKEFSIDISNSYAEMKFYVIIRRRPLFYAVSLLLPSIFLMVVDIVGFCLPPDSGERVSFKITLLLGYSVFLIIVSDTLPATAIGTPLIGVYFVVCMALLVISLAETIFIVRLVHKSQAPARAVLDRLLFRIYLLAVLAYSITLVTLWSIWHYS
# Text: as §3, §7, §5, §6
compound,measurement,setting,value
"NCCc1c[nH]c2ccc(O)cc12 [5-HT, 5-hydroxytryptamine]",Radiolabeled 5-HT bound per oocyte,5-HT3A-A7,0.40±0.08 pmol per oocyte
same,10–90% Activation rise time,[1]; 10 µM 5-HT,487 ± 25 ms
same,Imax (peak current),"[1]; 10 µM 5-HT, Xenopus oocytes, -60 mV",7100±400 nA
same,Desensitization time constant τ,[1]; prolonged 10 µM 5-HT,56 ± 9 s
same,5-HT induced current,[2],large currents
same,5-HT induced current,[3],large currents
same,Radiolabeled 5-HT binding to oocytes,5-HT3A-A1,undetectable
same,Radiolabeled 5-HT bound per oocyte,5-HT3A-A2,0.33±0.06 pmol per oocyte
same,10–90% Activation rise time,[4]; 10 µM 5-HT,1055 ± 17 ms
same,Desensitization time constant τ,"[4]; initial 10 µM 5-HT application, may be limited by solution exchange",7 ± 1 s
same,Imax (peak current),"[4]; initial application of 10 µM 5-HT, Xenopus oocytes, -60 mV",1800±380 nA
same,Current induced by subsequent 5-HT application,[4]; subsequent 5-HT application 360 s later,159±5 nA
same,Peak current,[5],87±30 nA
